Experimental data published in patent publication US10668041B2, “Compositions and methods comprising medium chain triglycerides for treatment of epilepsy” (Societe des Produits Nestle SA, priority 2014, dated 2020).
Where two headings read alike, the source gives them in different places.

Assays:
[1] = Crossover dietary trial: serum AED concentration; type: in vivo, canine; conditions: for concentration at 3 months: both sexes, mixed: 17 different breeds and cross breeds, dog, in vivo, read-out: serum concentration of PB
Method: A 6-month prospective, randomized, double blinded, placebo controlled, crossover dietary trial comparing an MCT-containing diet to a standardized placebo diet containing no MCTs in canine epilepsy was performed. Subjects were fed either the MCT or placebo diet for 3 months (Day 1 to Day 90±2 days) followed by a subsequent respective switch of diet for a further 3 months (Day 90 to Day 180±2 days). Relevant data were collected on the following variables at visit 1 (Day −2), visit 2 (Day 90±2 days) and visit 3 (day 180±2 days): seizure frequency; body weight; measurements of serum phenobarbital (PB) and/or (potassium bromide) KBr concentration as appropriate; dynamic bile acids; complete blood cell count; standard clinical serum chemistry; and adverse events.
Seizure frequency refers to the number of seizures per month and seizure-days refers to the number of days in a month with seizure occurrence. The severity of seizures was analyzing using the McNemar test by comparing the presence of cluster seizures between diet groups. Comparisons made between the MCT and placebo standardized diet groups were made using match-paired student's t tests for parametric data and Wilcoxon matched-pairs signed rank test for non-parametric data where both were used two-sided and P<0.05 was considered significant. Non-parametric data are presented as median (25-75% percentile) and parametric data are shown as mean (+/−SD).
The present study used twenty-one dogs of 17 different canine breeds including: American bulldog; 2 Beagles; 2 Border Collies; Boxer; Cavalier King Charles Spaniel; English Bull Terrier; English Springer Spaniel; German Shepherd; Golden Retriever; Lhasa Apso; Mastiff; Rhodesian Ridgeback; Saint Bernard; Siberian Husky; Slovakian Rough Haired Pointer; Welsh Springer Spaniel and 3 Cross breeds. The study population consisted of 15 males, of which 10 were neutered and 5 were intact and 6 females of which 4 were neutered and 2 were intact. The dogs were of 4.59±1.73 years of age and weighed 29.79±14.73 kilograms at start of trial. All 21 dogs received PB. Most dogs were also treated additionally with KBr (n=18). Some dogs were chronically treated with a third AED, imepitoin (n=1) or levetiracetam (n=4). Twelve owners had rectal diazepam or levetiracetam for pulse therapy at home available for the acute treatment of cluster seizure episodes. There was no difference for the acute or chronic treatment regimens between the placebo or MCT phase.

[2] = system: fifteen year old Dalmatian diagnosed with idiopathic epilepsy; assay: Example 2 case: Dalmatian with idiopathic epilepsy; type: in vivo, canine; conditions: treatment subsequently discontinued
Text: A fifteen year old Dalmatian was diagnosed with idiopathic epilepsy at age 3. Seizure phases of prodrome, aura, ictus, and postictal state were generally one to two […] in length. […] Subsequent treatment was proscribed in the form of an MCT diet (commercially available ProPlan® Senior 7+Chicken and Rice formula formulated to contain 5.6% MCTs, at least 26% crude protein, at least 15% crude fat, and 50% carbohydrates with less than 2% as crude fiber).

Row | SMILES | concentration at 3 months ([1]; MCT diet, spread 25.00-36.75 μg/ml, p=0.4233, no significant change) [µg/mL] | concentration at 3 months ([1]; placebo-standardized diet, spread 23.50-34.00 μg/ml) [µg/mL] | serum concentration of potassium bromide ([1]; MCT diet, spread 1.02-1.61 mg/ml, p=0.4037, no significant change) [µg/mL] | serum concentration of potassium bromide ([1]; placebo-standardized diet, spread 1.09-1.89 mg/ml) [µg/mL] | side effects [2]
1 | CCC1(c2ccccc2)C(=O)NC(=O)NC1=O [PB, phenobarbital] | 32.5 | 26.5 |  |  | 
2 | [Br-].[K+] [potassium bromide] |  |  | 1290 | 1230 | polyphagia, sedation, and ataxia
